From the supplement of paper PMC4862054

Assays:
Details in all cases: incubation time: 72 h
[1] = system: CAL-85-1; assay: drug sensitivity score (DSS), CellTox Green (DSS (AUC-based score)); higher = stronger drug effect (viability inhibition or cytotoxicity); extreme values may be limits of the assay
How it was run: (§1)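 Breast cancer cell lines were seeded in 20 µl suspension into 384-well plates already holding compound and incubated for 72 h. Each compound was tested at 5 concentrations in 10-fold steps across its own 10,000-fold range. Plates were normalised to 0.1 % DMSO and a positive kill control after CellTox Green and then CellTiter-Glo readings. The area under the fitted dose-response curve served as the basis for the drug sensitivity score.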

[2] = system: MDA-MB-436; assay: as above
How it was run: as §1

[3] = system: HDQ-P1; assay: as above
How it was run: as §1

[4] = system: HCC1599; assay: as above
How it was run: as §1

[5] = system: CAL-51; assay: as above
How it was run: as §1

[6] = system: HCC1143; assay: as above
How it was run: as §1

[7] = system: MDA-MB-231; assay: as above
How it was run: as §1

[8] = system: BT-474; assay: as above
How it was run: as §1

[9] = system: CAL-120; assay: as above
How it was run: as §1

[10] = system: MDA-MB-453; assay: as above
How it was run: as §1

[11] = system: BT-549; assay: as above
How it was run: as §1

[12] = system: CAL-148; assay: as above
How it was run: as §1

[13] = system: MCF-10A; assay: as above
How it was run: as §1

[14] = system: DU-4475; assay: as above
How it was run: as §1

[15] = system: MFM-223; assay: as above
How it was run: as §1

[16] = system: MDA-MB-468; assay: normalised response (% of control), CellTiter-Glo; higher = more viable cells (100 = DMSO, 0 = benzethonium chloride kill control)
How it was run: (§2)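 Each value is the plate-normalised signal at one concentration of the series. Breast cancer cell lines (20 µl suspension) were incubated 72 h in 384-well plates with compound at 5 concentrations in 10-fold steps over a compound-specific 10,000-fold range. CellTox Green and then CellTiter-Glo were read, and each plate was scaled to 0.1 % DMSO (100) and a positive kill control (0).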

[17] = system: HCC1937; assay: as above
How it was run: as §2

[18] = system: MDA-MB-436; assay: as above
How it was run: as §2

[19] = system: HCC1599; assay: as above
How it was run: as §2

[20] = system: Hs578T; assay: as above
How it was run: as §2

[21] = system: CAL-51; assay: as above
How it was run: as §2

[22] = system: MDA-MB-231; assay: as above
How it was run: as §2

[23] = system: CAL-120; assay: as above
How it was run: as §2

[24] = system: MDA-MB-453; assay: as above
How it was run: as §2

[25] = system: BT-549; assay: as above
How it was run: as §2

[26] = system: MDA-MB-468; assay: drug sensitivity score (DSS), CellTox Green (DSS (AUC-based score)); higher = stronger drug effect (viability inhibition or cytotoxicity); extreme values may be limits of the assay
How it was run: as §1

[27] = system: Hs578T; assay: as above
How it was run: as §1

Compound | drug sensitivity score [1] | drug sensitivity score [2] | drug sensitivity score [3] | drug sensitivity score [4] | drug sensitivity score [5] | drug sensitivity score [6] | drug sensitivity score [7] | drug sensitivity score [8] | drug sensitivity score [9] | drug sensitivity score [10] | drug sensitivity score [11] | drug sensitivity score [12] | drug sensitivity score [13] | drug sensitivity score [14] | drug sensitivity score [15] | normalised response [16] [%] | normalised response [17] [%] | normalised response [18] [%] | normalised response [19] [%] | normalised response [20] [%] | normalised response [21] [%] | normalised response [22] [%] | normalised response [23] [%] | normalised response [24] [%] | normalised response [25] [%] | drug sensitivity score [26] | drug sensitivity score [27]
CC[C@@H]1C(=O)OC[C@@H]1Cc1cncn1C [Pilocarpine] | 0 | 0 | 0 | 0 | 0 | 0 | 0 | 0 | 0 | 0 | 0 | 0 | 0 | 0 | 0 | – | – | – | – | – | – | – | – | – | – | – | –
Cn1cnc2c(F)c(Nc3ccc(Br)cc3Cl)c(C(=O)NOCCO)cc21 [Selumetinib] (1000 nM) | – | – | – | – | – | – | – | – | – | – | – | – | – | – | – | 87.8 | 84.7 | 90.7 | 93.9 | 93.4 | 110 | 72.5 | 85.1 | 106 | 96.5 | – | –
Cn1cc(C2=Nc3cc(NC(=O)C(N)C4CCCCC4)cc4c3C2=CNNC4=O)cn1 (stereo unspecified) | 12 | 0 | 7.95 | 0 | 11 | 0 | 8.99 | 0 | 1.7 | 3.06 | 4.35 | 0 | 16.2 | 0 | 5.76 | – | – | – | – | – | – | – | – | – | – | 3.14 | 1.58
Nc1nc2[nH]cnc2c(=S)[nH]1 [Thioguanine] (1000 nM) | – | – | – | – | – | – | – | – | – | – | – | – | – | – | – | 95.7 | 59.9 | 83.8 | 82 | 78.3 | 91.9 | 50.7 | 79 | 94.3 | 94.2 | – | –
Cn1cc(C2=Nc3cc(NC(=O)C(N)C4CCCCC4)cc4c3C2=CNNC4=O)cn1 (stereo unspecified) (1000 nM) | – | – | – | – | – | – | – | – | – | – | – | – | – | – | – | 30.7 | 87 | 53.3 | 11.9 | 41.3 | 81.6 | 63.7 | 69.7 | 35.9 | 25.7 | – | –
COc1cc2c(cc1O)CC[C@@H]1[C@@H]2CC[C@]2(C)[C@@H](O)CC[C@@H]12 [2-methoxyestradiol] | 0 | 0 | 0 | 0 | 4.37 | 0 | 13.2 | 3.99 | 0.794 | 0 | 0.838 | 0 | 1.69 | 0 | 6.65 | – | – | – | – | – | – | – | – | – | – | 0 | 8.52
Cc1sc2c(c1C)C(c1ccc(Cl)cc1)=N[C@@H](CC(=O)OC(C)(C)C)c1nnc(C)n1-2 [(+)JQ1] (1000 nM) | – | – | – | – | – | – | – | – | – | – | – | – | – | – | – | 55.1 | 80.8 | 83.2 | 80 | 48.8 | 103 | 77.2 | 73.4 | 46.1 | 43.5 | – | –
CC(C)(C)c1cnc(CSc2cnc(NC(=O)C3CCNCC3)s2)o1 [SNS-032] | 20.9 | 0 | 11.4 | 0 | 15.1 | 0 | 30.8 | 0 | 0 | 0 | 7.86 | 0 | 16.3 | 0 | 6.31 | – | – | – | – | – | – | – | – | – | – | 3.58 | 17.1
O=NN(CCCl)C(=O)NCCCl [Carmustine] | 0 | 0 | 0 | 0 | 0 | 0 | 0 | 0 | 0 | 0 | 0 | 0 | 0 | 0 | 0 | – | – | – | – | – | – | – | – | – | – | 0 | 0
CC1(C)CNc2cc(NC(=O)c3cccnc3NCc3ccncc3)ccc21 [Motesanib] (1000 nM) | – | – | – | – | – | – | – | – | – | – | – | – | – | – | – | 91.5 | 101 | 103 | 98.1 | 96.4 | 85.7 | 89.1 | 92.3 | 101 | 97.6 | – | –
CC(=O)O[C@@]12CO[C@@H]1C[C@H](O)[C@@]1(C)C(=O)[C@H](O)C3=C(C)[C@@H](OC(=O)[C@H](O)[C@@H](NC(=O)OC(C)(C)C)c4ccccc4)C[C@@](O)([C@@H](OC(=O)c4ccccc4)[C@H]21)C3(C)C [Docetaxel] (100 nM) | – | – | – | – | – | – | – | – | – | – | – | – | – | – | – | 36.6 | 68.3 | 31.6 | 28.5 | 13 | 27.4 | 28.7 | 56.3 | 45.3 | 16 | – | –
Oc1ncnc2[nH]ncc12 [Allopurinol] (1000 nM) | – | – | – | – | – | – | – | – | – | – | – | – | – | – | – | 106 | 94.3 | 100 | 119 | 109 | 123 | 103 | 98.8 | 107 | 99.7 | – | –
CC(=O)c1c(C)c2cnc(Nc3ccc(N4CCNCC4)cn3)nc2n(C2CCCC2)c1=O [Palbociclib] | 0 | 0 | 0 | 0 | 0 | 0 | 0 | 0 | 0 | 0 | 0 | – | 0 | 0 | 0 | – | – | – | – | – | – | – | – | – | – | 0 | 0
O=NN(CCCl)C(=O)NCCCl [Carmustine] (1000 nM) | – | – | – | – | – | – | – | – | – | – | – | – | – | – | – | 96.8 | 99.8 | 101 | 101 | 102 | 121 | 97.8 | 96.6 | 102 | 101 | – | –
Oc1ncnc2[nH]ncc12 [Allopurinol] | 0.422 | 0 | 0 | 0 | 0 | 0 | 0 | 0 | 0 | – | 0 | 0 | 0 | 0 | 0 | – | – | – | – | – | – | – | – | – | – | 0 | 0
CC(C)(C)c1cnc(CSc2cnc(NC(=O)C3CCNCC3)s2)o1 [SNS-032] (1000 nM) | – | – | – | – | – | – | – | – | – | – | – | – | – | – | – | 5.83 | 26.1 | 17.6 | 7.69 | 13 | 9.15 | 7.43 | 36.9 | 25.5 | 8.17 | – | –
O=C1CN2Cc3c(ccc(Cl)c3Cl)N=C2N1 [Anagrelide] | 0 | 0 | 0 | 0 | 14.2 | 0 | 0 | 0 | 0 | 0 | 0 | – | 0 | 0 | 0 | – | – | – | – | – | – | – | – | – | – | 0 | 0
Nc1ncn([C@@H]2O[C@H](CO)[C@@H](O)[C@H]2O)c(=O)n1 [Azacitidine] (1000 nM) | – | – | – | – | – | – | – | – | – | – | – | – | – | – | – | 39 | 90.9 | 79.1 | 84.9 | 102 | 119 | 97.4 | 91.1 | 96.8 | 80.5 | – | –
C[C@]12CC[C@@H]3c4ccc(OC(=O)N(CCCl)CCCl)cc4CC[C@H]3[C@@H]1CC[C@@H]2O [Estramustine] | 0 | 0 | – | 0 | 6.18 | 0 | 0 | 0 | 0 | 0 | 2.52 | 0 | 0 | 0 | 0 | – | – | – | – | – | – | – | – | – | – | 3.38 | –
COc1cc2c(cc1O)CC[C@@H]1[C@@H]2CC[C@]2(C)[C@@H](O)CC[C@@H]12 [2-methoxyestradiol] (1000 nM) | – | – | – | – | – | – | – | – | – | – | – | – | – | – | – | 95.1 | 89.6 | 74.2 | 96.6 | 77.3 | 92.9 | 73.9 | 81.8 | 72.7 | 49.5 | – | –
CC1=C2C[C@H]3[C@@H](CC=C4C[C@@H](O)CC[C@@]43C)[C@@H]2CC[C@]12O[C@@H]1C[C@H](C)CN[C@H]1[C@H]2C [Cyclopamine] (1000 nM) | – | – | – | – | – | – | – | – | – | – | – | – | – | – | – | 105 | 98.5 | 101 | 108 | 111 | 68 | 112 | 106 | 108 | 92.4 | – | –
CC[C@@H]1C(=O)OC[C@@H]1Cc1cncn1C [Pilocarpine] (4000 nM) | – | – | – | – | – | – | – | – | – | – | – | – | – | – | – | 91.8 | 92.6 | 91.5 | 92.7 | 105 | 96.8 | 97.4 | 95.7 | 98.9 | 97.6 | – | –
O=C1CN2Cc3c(ccc(Cl)c3Cl)N=C2N1 [Anagrelide] (1000 nM) | – | – | – | – | – | – | – | – | – | – | – | – | – | – | – | 102 | 96.8 | 95.8 | 118 | 88.7 | 88.4 | 94.2 | 93.6 | 101 | 95.1 | – | –
